Source: US9145375B2, “Quinazolinone compounds” (PRANA BIOTECHNOLOGY LIMITED, priority 2008, dated 2015)
pIC50: −log10 of the molar value. Several values for one entry are separate records, joined by “and”; a condition that tells them apart may be missing. Equal values may be shown once.

What was measured:
[1] = system: generation of hydrogen peroxide (H2O2) by iron; experiment: H2O2 Inhibition Assay; type: biochemical
Method: Assay 1. H2O2 Inhibition Assay.
(§1) This fluoresence assay evaluates the ability of a test compound to inhibit the generation of hydrogen peroxide (H2O2) by iron in the presence of a reducing substrate such as ascorbic acid. In the assay, iron in the form of FeCl3 or copper is allowed to react with ascorbic acid by incubating for 1 hr at 37° C. in the presence of the fluorescing compound DCF and horseradish peroxidase. H2O2 generated by the system is assessed by measuring the specific fluorescence profile at the excitation and emission wavelengths of 485 and 530 nm respectively, in the presence of increasing concentrations of test compound. Test compounds are ranked according to their capacity to inhibit H2O2 generated by the system where lower values reflect greater ability to inhibit H2O2 production.

Fe-DA = experiment: H2O2 assay, Fe-DA (% cf. Fe 0.4 μM/DA 50 μM); type: biochemical; settings: Fe 0.4 μM/DA 50 μM
Method: as §1

[2] = system: M17 human neuroblastoma cells; experiment: Metal Uptake Assay (metal transport); type: cell-based; settings: 10 μM Cu + 10 μM compound, 5 hours
Method: Assay 3. Metal Uptake Assay
M17 human neuroblastoma cells are plated out on 6 well plates and left overnight. Enough cells are added to give approximately 70% confluent the following day of the experiment. Test compounds are added to media and mixed with equi-molar amounts of CuCl2 solution. A=10 μM Cu+10 μM MPAC; B=10 μM Cu+10 μM MPAC.
Cells are incubated in 1 ml of media/MPAC/Cu mix for 5 hours at 37° C. At the end of the incubation the media is removed with a vacuum aspirator and 1 ml of PBS added to dislodge the cells. Cells are then put into Eppendorf tubes and pelleted. The PBS is removed and the remaining cell pellets are frozen at −20 C.
The cell pellets are prepared as follows:
Received cell pellets of similar levels in 1.5 ml microfuge tubes. Added 50 μl of concentrated Nitric Acid (Aristar, BDH) to each cell pellet and allowed them to digest over night. Heated the samples for 20 min at 90° C. to complete the digestion. The volume of each sample was reduced to ˜45 ul after digestion. Added 1 ml of the 1% Nitric Acid diluent to each sample. (referred to as the “preparation solution” samples).
Measurements were made using a Varian UltraMass ICPMS instrument under operating conditions suitable for routine multi-element analysis.
The instrument was calibrated using Blank, 10, 50 and 100 ppb of a certified multi-element ICPMS standard solution (ICP-MS—CAI2-1, Accustandard) for Fe, Cu and Zn in 1% nitric acid. Used an certified internal standard solution containing 100 ppb Yttrium (Y 89) as an internal control (ICP-MS—IS-MIX1-1, Accustandard).

Neuronal cortical cells = experiment: Cytotox (% viable); Primary Neuronal Cells Neurotoxicity Assay; type: cell-based, mouse; settings: cell type not given, repeat values given
Method: Assay 2 (a). Primary Neuronal Cells Neurotoxicity Assays
Cortical cultures were prepared as previously described (White et al., 1998). Embryonic day 14 BL6Jx129sv mouse cortices were removed, dissected free of meninges and dissociated in 0.025% (wt/vol) trypsin. Dissociated cells were plated in 48 well culture plates at a density of 2×10^6 cells/mL in MEM with 25% (vol/vol) FCS and 5% (vol/vol) HS and incubated at 37° C., 2 hrs. Media was then replaced with Neurobasal media (Invitrogen Life Technologies) and B27 supplements (Invitrogen Life Technologies). Cultures were maintained at 37° C. in 5% CO2. Prior to experimentation, the culture medium was replaced with Neurobasal media and B27 minus antioxidants (Invitrogen Life Technologies).
Neuronal cortical cells were cultured for five days as per Assay 2 in NB media and B27 supplement.
On day six the test compounds were added to the neuronal cell cultures in NB media and B27 supplement minus antioxidants.
Test compounds were dissolved in 100% DMSO to a concentration of 2.5 mM (10 mM if excess compound was weighed out per vial—then diluted to 2.5 mM). 2.5 mM stock solution was serially diluted 1 in 10 to give working solutions of 250 uM, 25 uM, 2.5 uM. Test compounds were not added directly to cells, instead they were added to a 48 well ‘Drug Plate’ as comprised below: • Preparation of “Drug Plate”:
Well 1: 576 ul NB+B27 (no antioxidant)*+24 ul 2.5 uM test compound
Well 2: 576 ul NB+B27 (no antioxidant)+24 μl 25 uM test compound
Well 3: 576 ul NB+B27 (no antioxidant)+24 ul 250 uM test compound
Well 4: 576 ul NB+B27 (no antioxidant)+24 ul 2.5 uM test compound
Well 5: 576 ul NB+B27 (no antioxidant)+24 ul 25 uM test compound
Well 6: 576 ul NB+B27 (no antioxidant)+24 ul 250 uM test compound
Well 7: 576 ul NB+B27 (no antioxidant)+24 ul test compound diluent**
Well 8: 600 ul NB+B27 (no antioxidant)
The Drug Plate was incubated at 37° C. for 15 mins. 200 ul of each well was added in triplicate to the corresponding cell plate. The cell plate was incubated at 37° C., for 4 days, (2 compounds are tested on each plate of cells).
*NB media and B27 (no antioxidants),
**PBT diluent 10% DMSO in NB+1327 (no antioxidants)
On completion of the assay, 1/10 volume MTS was added per well of plate (ie 25 ul/250 ul). The plates were incubated at 37° C. for 2 hrs, and then absorbance was read at 560 nm.

Compound | pIC50 [1] | Fe-DA % cf. Fe 0.4 μM/DA 50 μM (Fe-DA) | Metal transport [2] | Cytotox (% viable at 1 uM) (Neuronal cortical cells) | Cytotox (% viable at 10 uM) (Neuronal cortical cells)
C#CCN(C)Cc1nc2c(O)c(Cl)cc(Cl)c2c(=O)n1CC [Compound F4392] | 6.24 | 72% | Metal transport 161% |  | 
Cn1c(CN2CCCCC2)nc2c(O)c(Cl)cc(Cl)c2c1=O [Compound F4475] | 6.30 | 80% | Metal transport 8% |  | 
CCCNCc1nc2c(O)c(Cl)cc(Cl)c2c(=O)n1C [Compound F4477] | 6.66 | 65% | Metal transport 16% |  | 
CN(Cc1ccc(F)cc1)Cc1nc2c(O)c(Cl)cc(Cl)c2c(=O)n1CC1CC1 [Compound F4480] | 6.33 | 46% | Metal transport 138% | 91.6% and 106.7% | 30.3% and 33.3%
CCn1c(CN(C)Cc2ccc(F)cc2)nc2c(O)c(Cl)cc(Cl)c2c1=O [Compound F4487] | 6.12 | 53% | Metal transport 133% |  | 
CCCn1c(CN2CCCCC2)nc2c(O)c(Cl)cc(Cl)c2c1=O [Compound F4492] | 5.94 | 55% | Metal transport 18% |  | 
O=c1c2c(Cl)cc(Cl)c(O)c2nc(CN2CCCC2)n1CC1CC1 [Compound F4499] | 5.72 | 55% | Metal transport 15% | 99.1% and 76.5% | 68.6% and 78.1%
CCCn1c(CN(C)C)nc2c(O)c(Cl)cc(Cl)c2c1=O [Compound F4530] | 6.54 | 57% | Metal transport 24% | 105.0% and 96.2% | 57.6% and 41.4%
CCCN(CCC)Cc1nc2c(O)c(Cl)cc(Cl)c2c(=O)n1CC1CC1 [Compound F4535] | 6.06 | 62% | Metal transport 25% | 87.0% and 103.0% | 63.6% and 59.8%
CN(Cc1nc2c(O)c(Cl)cc(Cl)c2c(=O)n1CC1CC1)C1CCCCC1 [Compound F4536] | 6.00 | 81% | Metal transport 24% | 92.7% and 105.1% and 109.8% | 
CCCn1c(CNCC)nc2c(O)c(Cl)cc(Cl)c2c1=O [Compound F4540] | < 5.00 | 122% | Metal transport 14% | 100.4% and 111.5% | 83.4% and 96.5%
CCCn1c(CN(CC)CC)nc2c(O)c(Cl)cc(Cl)c2c1=O [Compound F4541] | 6.13 | 107% | Metal transport 13% | 97.3% and 96.4% | 76.6% and 90.8%
